Laboratory results taken from US10463660B2, “Benzoic acid, benzoic acid derivatives and heteroaryl carboxylic acid conjugates of oxymorphone, prodrugs, methods of making and use thereof” (KemPharm, Inc., priority 2014, dated 2019).

How the values were obtained:
[1] = Oral PK profiles of conjugated oxymorphone in rats (released oxymorphone in plasma by LC-MS/MS); type: in vivo, Sprague-Dawley rats; details: for %-AUC / %-Cmax / %-Tmax: 2 mg/kg oxymorphone equivalent, relative to the OM control; for AUC / Cmax / Tmax: conjugate equivalent to 2 mg/kg freebase oxymorphone, released oxymorphone in plasma
Experimental: (§1) Oral PK curves were determined for a number of prodrug conjugates of the present technology. Rats were orally administered at an amount of the conjugate equivalent to 2 mg/kg of freebase oxymorphone and the plasma concentrations of released oxymorphone were measured over time by LC-MS/MS.
(§2) All PK parameters from the above experiments were calculated and expressed as % change from the control (OM). These PK parameters included maximal plasma concentration (Cmax), area under curve (AUC), and time at which Cmax occurred (Tmax).

[2] = Intranasal PK profiles of conjugated oxymorphone in rats (released oxymorphone in plasma by LC-MS/MS); type: in vivo; details: for %-AUC / %-Cmax / %-Tmax: 0.2 mg/kg oxymorphone equivalent, relative to the OM control; for AUC / Cmax / Tmax: conjugate equivalent to 0.2 mg/kg freebase oxymorphone, released oxymorphone in plasma
Experimental: as §1, with “Intranasal” for “Oral”, “intranasally” for “orally”, “0.2” for “2”
as §2, with “(Tmax). These parameters are shown in Table 2 relative to the OM controls.” for “(Tmax).”

**Q.** Which “%-AUC” value [1] does the source give for COc1ccc(C(=O)OC2=CCC3(O)C4Cc5ccc(OC(=O)c6ccc(OC)cc6)c6c5C3(CCN4C)C2O6)cc1 (stereo not drawn) [3,6-(4-MeO-Bz)2-OM] here?
**A.** 110%

**Q.** And the “%-Cmax” value [1]?
**A.** 121%

**Q.** What about the “%-Tmax” value [1] of the same compound?
**A.** 35%

**Q.** What about the AUC [1] of the same compound?
**A.** 26.0 ng·h/mL

**Q.** And the Cmax [1]?
**A.** 10.6 ng/mL

**Q.** And the Tmax [1]?
**A.** 15 min

**Q.** What about the “%-AUC” value [2] of the same compound?
**A.** 30%

**Q.** And the “%-Cmax” value [2]?
**A.** 9%

**Q.** What about the “%-Tmax” value [2] of the same compound?
**A.** 167%

**Q.** And the AUC [2]?
**A.** 24.6 ng·h/mL

**Q.** And the Cmax [2]?
**A.** 33.5 ng/mL

**Q.** What about the Tmax [2] of the same compound?
**A.** 8.4 min

**Q.** Which “%-AUC” value [1] does the source give for CC(C(=O)Oc1ccc2c3c1O[C@H]1C(=O)CC[C@@]4(O)[C@@H](C2)N(C)CC[C@]314)c1cccc(Oc2ccccc2)c1 (stereo partly drawn) [3-Fenoprofen-OM] here?
**A.** 59%

**Q.** What about the “%-Cmax” value [1] of the same compound?
**A.** 52%

**Q.** What about the “%-Tmax” value [1] of the same compound?
**A.** 100%

**Q.** And the AUC [1]?
**A.** 14.8 ng·h/mL

**Q.** What about the Cmax [1] of the same compound?
**A.** 9.6 ng/mL

**Q.** What about the Tmax [1] of the same compound?
**A.** 36 min

**Q.** Which results are given for CN1CC[C@]23c4c5ccc(OC(=O)c6ccccc6O)c4O[C@H]2C(=O)CC[C@@]3(O)[C@H]1C5 [3-(2-OH-Bz)-OM]?
**A.** %-AUC [1]: 72%; %-Cmax [1]: 74%; %-Tmax [1]: 62%; AUC [1]: 31.3 ng·h/mL; Cmax [1]: 17.5 ng/mL; Tmax [1]: 39 min; %-AUC [2]: 66%; %-Cmax [2]: 55%; %-Tmax [2]: 100%; AUC [2]: 65.9 ng·h/mL; Cmax [2]: 276.1 ng/mL; Tmax [2]: 4.8 min

**Q.** With CN1CC[C@]23c4c5ccc(OC(=O)c6cc(-c7ccc(F)cc7F)ccc6O)c4O[C@H]2C(=O)CC[C@@]3(O)[C@H]1C5 [3-Diflunisal-OM] as the compound, how does the “%-AUC” value [1] read?
**A.** 85%

**Q.** And the “%-Cmax” value [1]?
**A.** 52%

**Q.** And the “%-Tmax” value [1]?
**A.** 340%

**Q.** What about the AUC [1] of the same compound?
**A.** 17.6 ng·h/mL

**Q.** And the Cmax [1]?
**A.** 13.2 ng/mL

**Q.** What about the Tmax [1] of the same compound?
**A.** 51 min

**Q.** And the “%-AUC” value [2]?
**A.** 131%

**Q.** And the “%-Cmax” value [2]?
**A.** 41%

**Q.** What about the “%-Tmax” value [2] of the same compound?
**A.** 200%

**Q.** What about the AUC [2] of the same compound?
**A.** 108.2 ng·h/mL

**Q.** What about the Cmax [2] of the same compound?
**A.** 151.5 ng/mL

**Q.** And the Tmax [2]?
**A.** 10.2 min

**Q.** What does the source list for CN1CC[C@]23c4c5ccc(O)c4O[C@H]2C(OC(=O)c2ccccc2)=CC[C@@]3(O)[C@H]1C5 [Conjugate 6-Bz-OM]?
**A.** %-AUC [1]: 78%; %-Cmax [1]: 67%; %-Tmax [1]: 129%; AUC [1]: 15.0 ng·h/mL; Cmax [1]: 6.4 ng/mL; Tmax [1]: 108 min; %-AUC [2]: 42%; %-Cmax [2]: 36%; %-Tmax [2]: 100%; AUC [2]: 35.1 ng·h/mL; Cmax [2]: 145.2 ng/mL; Tmax [2]: 4.8 min

**Q.** Which AUC [1] does the source give for CN1CC[C@]23c4c5ccc(O)c4O[C@H]2C(OC(=O)c2cc(-c4ccc(F)cc4F)ccc2O)=CC[C@@]3(O)[C@H]1C5 [6-Diflunisal-OM] here?
**A.** 67.2 ng·h/mL

**Q.** And the Cmax [1]?
**A.** 50.6 ng/mL

**Q.** And the Tmax [1]?
**A.** 15 min

**Q.** And the “%-AUC” value [2]?
**A.** 25%

**Q.** And the “%-Cmax” value [2]?
**A.** 11%

**Q.** What about the “%-Tmax” value [2] of the same compound?
**A.** 100%

**Q.** What about the AUC [2] of the same compound?
**A.** 20.7 ng·h/mL

**Q.** And the Cmax [2]?
**A.** 39.1 ng/mL

**Q.** What about the Tmax [2] of the same compound?
**A.** 4.8 min

**Q.** With CN1CC[C@]23c4c5ccc(O)c4O[C@H]2C(OC(=O)c2ccccc2O)=CC[C@@]3(O)[C@H]1C5 [6-(2-OH-Bz)-OM] as the compound, how does the “%-AUC” value [1] read?
**A.** 134%

**Q.** And the “%-Cmax” value [1]?
**A.** 157%

**Q.** And the “%-Tmax” value [1]?
**A.** 60%

**Q.** What about the AUC [1] of the same compound?
**A.** 50.6 ng·h/mL

**Q.** What about the Cmax [1] of the same compound?
**A.** 31.6 ng/mL

**Q.** What about the Tmax [1] of the same compound?
**A.** 45 min

**Q.** With COc1ccc(C(=O)Oc2ccc3c4c2O[C@H]2C(=O)CC[C@@]5(O)[C@@H](C3)N(C)CC[C@]425)cc1 [3-(4-MeO-Bz)-OM] as the compound, how does the “%-AUC” value [1] read?
**A.** 100%

**Q.** What about the “%-Cmax” value [1] of the same compound?
**A.** 99%

**Q.** And the “%-Tmax” value [1]?
**A.** 100%

**Q.** And the AUC [1]?
**A.** 43.2 ng·h/mL

**Q.** What about the Cmax [1] of the same compound?
**A.** 23.6 ng/mL

**Q.** What about the Tmax [1] of the same compound?
**A.** 63 min

**Q.** What about the “%-AUC” value [2] of the same compound?
**A.** 76%

**Q.** What about the “%-Cmax” value [2] of the same compound?
**A.** 61%

**Q.** What about the “%-Tmax” value [2] of the same compound?
**A.** 100%

**Q.** And the AUC [2]?
**A.** 63.1 ng·h/mL

**Q.** What about the Cmax [2] of the same compound?
**A.** 244.9 ng/mL

**Q.** And the Tmax [2]?
**A.** 4.8 min

**Q.** What does the source list for COc1ccc(C(=O)OC2=CC[C@@]3(O)[C@H]4Cc5ccc(O)c6c5[C@@]3(CCN4C)[C@H]2O6)cc1 [6-(4-MeO-Bz)-OM]?
**A.** %-AUC [1]: 69%; %-Cmax [1]: 90%; %-Tmax [1]: 22%; AUC [1]: 12.2 ng·h/mL; Cmax [1]: 8.6 ng/mL; Tmax [1]: 15 min

**Q.** With CC(C(=O)Oc1ccc2c3c1O[C@H]1C(=O)CC[C@@]4(O)[C@@H](C2)N(C)CC[C@]314)c1cccc(C(=O)c2ccccc2)c1 (stereo partly drawn) [3-Ketoprofen-OM] as the compound, how does the “%-AUC” value [1] read?
**A.** 159%

**Q.** And the “%-Cmax” value [1]?
**A.** 150%

**Q.** What about the “%-Tmax” value [1] of the same compound?
**A.** 30%

**Q.** And the AUC [1]?
**A.** 49.7 ng·h/mL

**Q.** What about the Cmax [1] of the same compound?
**A.** 30.3 ng/mL

**Q.** What about the Tmax [1] of the same compound?
**A.** 18 min

**Q.** Which “%-AUC” value [1] does the source give for CN1CC[C@]23c4c5ccc(OC(=O)/C=C/c6ccccc6)c4O[C@H]2C(=O)CC[C@@]3(O)[C@H]1C5 [3-Cinnamate-OM] here?
**A.** 190%

**Q.** What about the “%-Cmax” value [1] of the same compound?
**A.** 236%

**Q.** And the “%-Tmax” value [1]?
**A.** 136%

**Q.** What about the AUC [1] of the same compound?
**A.** 36.8 ng·h/mL

**Q.** What about the Cmax [1] of the same compound?
**A.** 19.0 ng/mL

**Q.** What about the Tmax [1] of the same compound?
**A.** 90 min

**Q.** With CC(=O)Oc1ccccc1C(=O)Oc1ccc2c3c1OC1C(=O)CCC4(O)C(C2)N(C)CCC314 (stereo not drawn) [3-(2-AcO-Bz)-OM] as the compound, how does the “%-AUC” value [1] read?
**A.** 72%

**Q.** And the “%-Cmax” value [1]?
**A.** 78%

**Q.** And the “%-Tmax” value [1]?
**A.** 25%

**Q.** And the AUC [1]?
**A.** 22.5 ng·h/mL

**Q.** What about the Cmax [1] of the same compound?
**A.** 15.8 ng/mL

**Q.** What about the Tmax [1] of the same compound?
**A.** 15 min

**Q.** For COc1cc(C(=O)OC2=CC[C@@]3(O)[C@H]4Cc5ccc(O)c6c5[C@@]3(CCN4C)[C@H]2O6)ccc1O [6-Vanillate-OM], which “%-AUC” value [1] is on record?
**A.** 56%

**Q.** And the “%-Cmax” value [1]?
**A.** 65%

**Q.** What about the “%-Tmax” value [1] of the same compound?
**A.** 97%

**Q.** What about the AUC [1] of the same compound?
**A.** 8.9 ng·h/mL

**Q.** What about the Cmax [1] of the same compound?
**A.** 5.0 ng/mL

**Q.** What about the Tmax [1] of the same compound?
**A.** 102 min

**Q.** Which results are given for CN1CC[C@]23c4c5ccc(O)c4O[C@H]2C(OC(=O)c2cccc(N)c2)=CC[C@@]3(O)[C@H]1C5 [6-(3-ABz)-OM]?
**A.** %-AUC [1]: 46%; %-Cmax [1]: 32%; %-Tmax [1]: 276%; AUC [1]: 16.7 ng·h/mL; Cmax [1]: 6.2 ng/mL; Tmax [1]: 114 min

**Q.** What does the source list for CC(C(=O)OC1=CCC2(O)C3Cc4ccc(O)c5c4C2(CCN3C)C1O5)c1cccc(C(=O)c2ccccc2)c1 (stereo not drawn) [6-Ketoprofen-OM]?
**A.** %-AUC [1]: 99%; %-Cmax [1]: 47%; %-Tmax [1]: 260%; AUC [1]: 20.6 ng·h/mL; Cmax [1]: 11.8 ng/mL; Tmax [1]: 39 min

**Q.** With CN1CC[C@]23c4c5ccc(OC(=O)/C=C/c6ccccc6)c4O[C@H]2C(OC(=O)/C=C/c2ccccc2)=CC[C@@]3(O)[C@H]1C5 [3,6-(Cinnamate)2-OM] as the compound, how does the “%-AUC” value [1] read?
**A.** 38%

**Q.** And the “%-Cmax” value [1]?
**A.** 43%

**Q.** And the “%-Tmax” value [1]?
**A.** 50%

**Q.** What about the AUC [1] of the same compound?
**A.** 14.5 ng·h/mL

**Q.** And the Cmax [1]?
**A.** 8.7 ng/mL

**Q.** What about the Tmax [1] of the same compound?
**A.** 45 min

**Q.** For CN1CC[C@]23c4c5ccc(O)c4O[C@H]2C(OC(=O)/C=C/c2ccccc2)=CC[C@@]3(O)[C@H]1C5 [6-Cinnamate-OM], which “%-AUC” value [1] is on record?
**A.** 77%

**Q.** And the “%-Cmax” value [1]?
**A.** 59%

**Q.** And the “%-Tmax” value [1]?
**A.** 225%

**Q.** What about the AUC [1] of the same compound?
**A.** 28.0 ng·h/mL

**Q.** And the Cmax [1]?
**A.** 11.4 ng/mL

**Q.** What about the Tmax [1] of the same compound?
**A.** 93 min

**Q.** With COc1cc(C(=O)Oc2ccc3c4c2O[C@H]2C(=O)CC[C@@]5(O)[C@@H](C3)N(C)CC[C@]425)ccc1O [3-Vanillate-OM] as the compound, how does the “%-AUC” value [1] read?
**A.** 92%

**Q.** What about the “%-Cmax” value [1] of the same compound?
**A.** 97%

**Q.** What about the “%-Tmax” value [1] of the same compound?
**A.** 46%

**Q.** What about the AUC [1] of the same compound?
**A.** 14.7 ng·h/mL

**Q.** What about the Cmax [1] of the same compound?
**A.** 7.5 ng/mL

**Q.** What about the Tmax [1] of the same compound?
**A.** 48 min
